Measured values: PubChem BioAssay AID330 (DTP/NCI, 2004)
Several values for one entry are separate records, joined by “and”; a condition that tells them apart may be missing. Identical values can stand only once. Toxic doses and inconclusive results are not listed. Peptide text beside a SMILES is read from it.

Test system: P388 leukemia ip, CD2F1 mice, survival T/C
Assay: NCI In Vivo Anticancer Drug Screen. Data for tumor model P388 Leukemia (intraperitoneal) in CD2F1 (CDF1) mice
Details: endpoint: median survival time, higher = longer survival
Procedure, shortened: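 Mice carrying the transplanted tumor received test compound or vehicle. Survival was recorded in each group, and the value is the treated-group measurement divided by that of the vehicle-treated control group.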

[1] = dose: 50.0 mg/kg/injection, schedule: Q01DX009 (ip), vehicle: saline with Tween-80
[2] = dose: 60.0 mg/kg/injection, schedule: Q01DX005 (ip), vehicle: saline with Tween-80

For `CN(C)c1ncnc2c1cnn2C`, the T/C [1] was 109 % of control, the T/C (dose: 50.0 mg/kg/injection, schedule: Q04DX003 (ip), vehicle: saline sonified) was 100 % of control and the T/C (dose: 100.0 mg/kg/injection, schedule: Q04DX003 (ip), vehicle: saline sonified) was 100 % of control. For the same molecule, the T/C (dose: 200.0 mg/kg/injection, schedule: Q04DX003 (ip), vehicle: saline sonified) was 109 % of control.
`COc1ccc2c(N=[N+]=[N-])cc(C)nc2c1` was tested, and the T/C (dose: 30.0 mg/kg/injection, schedule: Q01DX005 (ip), vehicle: saline with Tween-80) was 97 % of control and the T/C [2] was 100 % of control and 91 % of control.
With `O=[N+]([O-])c1ccc([O-])c([I+]c2ccccc2)c1` the T/C (dose: 12.5 mg/kg/injection, schedule: Q01DX009 (ip), vehicle: Klucel (hydroxypropylcellulose) (HPC)) was 94 % of control, the T/C (dose: 25.0 mg/kg/injection, schedule: Q01DX009 (ip), vehicle: Klucel (hydroxypropylcellulose) (HPC)) was 96 % of control and the T/C (dose: 50.0 mg/kg/injection, schedule: Q01DX009 (ip), vehicle: Klucel (hydroxypropylcellulose) (HPC)) was 89 % of control and 94 % of control.
For `[Ni+2].[S-]CC[S-]`, the T/C (dose: 100.0 mg/kg/injection, schedule: Q04DX003 (ip), vehicle: saline with Tween-80) was 92 % of control and the T/C (dose: 200.0 mg/kg/injection, schedule: Q04DX003 (ip), vehicle: saline with Tween-80) was 108 % of control.
With `CNC(=O)c1nn(C)c(=O)[nH]c1=O` the T/C (dose: 50.0 mg/kg/injection, schedule: Q01DX005 (ip), vehicle: saline) was 97 % of control, the T/C (dose: 100.0 mg/kg/injection, schedule: Q01DX005 (ip), vehicle: saline) was 103 % of control and the T/C (dose: 200.0 mg/kg/injection, schedule: Q01DX005 (ip), vehicle: saline) was 96 % of control.
For `CCC(C)C(NC(=O)C(N)CCCN=C(N)N)C(=O)O` (stereo not drawn) (H-Arg-Ile-OH; configuration not given here), the T/C (dose: 50.0 mg/kg/injection, schedule: Q01DX005 (ip), vehicle: Klucel (hydroxypropylcellulose) (HPC)) was 98 % of control, the T/C (dose: 100.0 mg/kg/injection, schedule: Q01DX005 (ip), vehicle: Klucel (hydroxypropylcellulose) (HPC)) was 100 % of control and the T/C (dose: 200.0 mg/kg/injection, schedule: Q01DX005 (ip), vehicle: Klucel (hydroxypropylcellulose) (HPC)) was 101 % of control.
For `N=C1SCc2ccc3ccccc3c21`, the T/C [1] was 100 % of control, the T/C (dose: 100.0 mg/kg/injection, schedule: Q01DX009 (ip), vehicle: saline with Tween-80) was 124 % of control and the T/C (dose: 400.0 mg/kg/injection, schedule: Q01DX009 (ip), vehicle: saline with Tween-80) was 97 % of control.
In the case of `COC(=O)N1c2ccccc2[C@@H](O)[C@@H]1OC`, the T/C [2] was 119 % of control, the T/C (dose: 120.0 mg/kg/injection, schedule: Q01DX005 (ip), vehicle: saline with Tween-80) was 116 % of control and the T/C (dose: 240.0 mg/kg/injection, schedule: Q01DX005 (ip), vehicle: saline with Tween-80) was 100 % of control.
In the case of `O=C(NCCCCCCCCCCNC(=O)N1CC1)N1CC1`, the T/C (dose: 0.25 mg/kg/injection, schedule: Q04DX003 (ip), vehicle: saline with Tween-80) was 104 % of control, the T/C (dose: 0.5 mg/kg/injection, schedule: Q04DX003 (ip), vehicle: saline with Tween-80) was 108 % of control and the T/C (dose: 1.56 mg/kg/injection, schedule: Q01DX009 (ip), vehicle: saline with Tween-80) was 165 % of control. The T/C (dose: 2.0 mg/kg/injection, schedule: Q04DX003 (ip), vehicle: saline with Tween-80) was 159 % of control, the T/C (dose: 3.0 mg/kg/injection, schedule: Q04DX003 (ip), vehicle: saline with Tween-80) was 209 % of control and the T/C (dose: 3.13 mg/kg/injection, schedule: Q04DX003 (ip), vehicle: saline with Tween-80) was 185 % of control. For the same molecule, the T/C (dose: 4.5 mg/kg/injection, schedule: Q04DX003 (ip), vehicle: saline with Tween-80) was 204 % of control, the T/C (dose: 6.25 mg/kg/injection, schedule: Q01DX009 (ip), vehicle: saline with Tween-80) was 95 % of control and the T/C (dose: 6.25 mg/kg/injection, schedule: Q04DX003 (ip), vehicle: saline with Tween-80) was 150 % of control.
`CCCCCC(=O)N1SC(NC(=O)OC)=Nc2ccccc21` was tested, and the T/C (dose: 50.0 mg/kg/injection, schedule: Q01DX005 (ip), vehicle: acetone) was 102 % of control, the T/C (dose: 100.0 mg/kg/injection, schedule: Q01DX005 (ip), vehicle: acetone) was 107 % of control and the T/C (dose: 200.0 mg/kg/injection, schedule: Q01DX005 (ip), vehicle: acetone) was 107 % of control.
With `NC(CS(=O)(=O)NO)C(=O)O` (stereo unspecified) the T/C (dose: 60.0 mg/kg/injection, schedule: Q01DX009 (ip), vehicle: saline with Tween-80) was 97 % of control, the T/C (dose: 120.0 mg/kg/injection, schedule: Q01DX009 (ip), vehicle: saline with Tween-80) was 113 % of control and the T/C (dose: 240.0 mg/kg/injection, schedule: Q01DX009 (ip), vehicle: saline with Tween-80) was 119 % of control.
In the case of `CC(C)(C(=S)[S-])[P+](c1ccccc1)(c1ccccc1)c1ccccc1`, the T/C (dose: 60.0 mg/kg/injection, schedule: Q01DX005 (ip), vehicle: Klucel (hydroxypropylcellulose) (HPC)) was 96 % of control, the T/C (dose: 120.0 mg/kg/injection, schedule: Q01DX005 (ip), vehicle: Klucel (hydroxypropylcellulose) (HPC)) was 92 % of control and the T/C (dose: 240.0 mg/kg/injection, schedule: Q01DX005 (ip), vehicle: Klucel (hydroxypropylcellulose) (HPC)) was 88 % of control.
